Read-outs that look alike come from different tables or passages of the source. Blank lines part the entries; values can stand above or below the molecule they belong to.
Experiment: comparative stability of hypochlorous acid in the presence of various ingredients (free available chlorine, FAC)
Type: physicochemical
Source text: Free available chlorine or free active chlorine (FAC) refers to the amount of chlorine that is available to disinfect or kill microorganisms. Importantly, FAC covers many forms of chlorine, such as hypochlorous acid and hypohalite anion, in addition to freely available chlorine. Measurement and quantification of FAC is typically accomplished by a titration or colorimetric method. In certain embodiments, the eyelid cleanser composition contains 10 to 300 ppm of free available chlorine (FAC).
Table 1 illustrates the comparative stability of hypochlorous acid in the presence of various ingredients. The inventors determined that only specific ingredients disclosed in the disclosed embodiments are compatible with hypochlorous acid. For example, after 7 days in solution with sodium laureth sulfate, the FAC concentration decreased by about 4% per day.

[1] = component tested at 0.50%, start
[2] = component tested at 0.5%^, start
[3] = FAC, component 0.01 M, time 2 days
[4] = component tested at 0.01 M in hypochlorous acid solution, start

Molecule: CCCCCCCCOC(=O)CC(C(=O)OCCCCCCCC)S(=O)(=O)O.[Na] (centres unmarked) [Dioctyl Sulfosuccinate Sodium]
- % change/day (FAC, component 0.50%, time 10 days): −6%
- % change/day (FAC, component 0.5%^, time 38 days): −1%
- FAC End (component 0.50%, time 10 days): 113 ppm
- FAC End (component 0.5%^, time 38 days): 194 ppm
- FAC Start [1]: 289 ppm
- FAC Start [2]: 289 ppm

Molecule: O=C(O)CC(O)(CC(=O)O)C(=O)O [Citric Acid]
- % change/day [3]: −49%
- FAC End (component 0.01 M, time 2 days): 5.1 ppm
- FAC Start [4]: 188.9 ppm

Molecule: O=C([O-])CC(O)(CC(=O)[O-])C(=O)[O-].[Na+].[Na+].[Na+] [Sodium Citrate]
- % change/day [3]: −49%
- FAC End (component 0.01 M, time 2 days): 2.6 ppm
- FAC Start [4]: 125.1 ppm

Molecule: CC(=O)O [Acetic Acid]
- % change/day [3]: 2%
- FAC End (component 0.01 M, time 2 days): 384.6 ppm
- FAC Start [4]: 367.5 ppm

Molecule: CC(=O)[O-].[Na+] [Sodium Acetate]
- % change/day: 2%
- FAC End: 377 ppm
- FAC Start: 362.1 ppm

Molecule: CC(C)(CO)C(O)C(=O)NCCCO (centres unmarked) [DI-Panthenol]
- % change/day (FAC, component 1%, time 3 days): −26%
- FAC End (component 1%, time 3 days): 23 ppm
- FAC Start (component tested at 1%, start): 101 ppm

Molecule: OCC(O)CO [Glycerin]
- % change/day (FAC, component 1%, time 3 days): −17%
- FAC End (component 1%, time 3 days): 50 ppm
- FAC Start (component tested at 1%, start): 102 ppm

Molecule: CCCCCCCCCCO[C@@H]1O[C@H](CO)[C@@H](O)[C@H](O)[C@H]1O [Decyl Glucoside]
- % change/day (FAC, component 1%, time 3 days): −100%
- FAC End (component 1%, time 3 days): 0 ppm
- FAC Start (component tested at 1%, start): 3 ppm
- degradation of hypochlorous acid (observation) (in the presence of the component): immediate degradation

The remaining lines, values ahead:

- % change/day (FAC, component 0.5%^, time 238 days): 0%
- FAC End (component 0.5%^, time 238 days): 11 ppm
- FAC Start [2]: 267 ppm
Molecule: CCCCCCCCCCCCOS(=O)(=O)[O-].[Na+] [Sodium Lauryl Sulfate]

- % change/day [3]: 2%
- FAC End (component 0.01 M, time 2 days): 374.4 ppm
- FAC Start [4]: 361.4 ppm
Molecule: O=P([O-])(O)O.[Na+] [Sodium Monobasic Phosphate]

- % change/day (FAC, component 0.50%, time 2 days): −16%
- FAC End (component 0.50%, time 2 days): 264.9 ppm
- FAC Start [1]: 391 ppm
Molecule: Polysorbate 20

- % change/day [3]: 16%
- FAC End (component 0.01 M, time 2 days): 331.1 ppm
- FAC Start [4]: 250 ppm
Molecule: O=P([O-])([O-])O.[Na+].[Na+] [Sodium Dibasic Phosphate]

- % change/day (FAC, component 1%, time 3 days): −11%
- FAC End (component 1%, time 3 days): 67 ppm
- FAC Start (component tested at 1%, start): 99 ppm
Molecule: CC(O)CO (centres unmarked) [Propylene Glycol]

- % change/day (FAC, component 0.5%^, time 7 days): −4%
- FAC concentration decrease (after 7 days in solution): about 4 % per day
- FAC End (component 0.5%^, time 7 days): 208 ppm
- FAC Start [2]: 287 ppm
Molecule: Sodium Laureth Sulfate
